Results published in US9642831B2, “Substituted chromanes and method of use” (AbbVie S.á.r.l., priority 2014, dated 2017).

Biological target: F508delCFTR (Homo sapiens, UniProt P13569, DEL508-508)
Assay: Cell Surface Expression-Horse Radish Peroxidase (CSE-HRP) assay
Assay type: cell-based
Design: expressed in transfected cells; host or cells: CFBE41o- human lung derived epithelial cell line, doxycycline-inducible
Conditions: CFBE4lo-F508delCFTR-HRP cells; for EC50: 18-24 hours at 33° C., 8-point curve, highest concentration 20 μM, luminescence readout
Outline: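 Following 18-24 h compound exposure at 33° C. Expression was doxycycline-induced beforehand. % activity versus DMSO and a 3 μM corrector control gave maximum activity and EC50 from a variable-Hill sigmoidal fit.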

[1] = maximum % activity at any tested concentration, normalized to on-plate positive control (3 μM Example 1)

Chain of F508delCFTR (P13569 with tags, fused parts or gaps DEL508-508): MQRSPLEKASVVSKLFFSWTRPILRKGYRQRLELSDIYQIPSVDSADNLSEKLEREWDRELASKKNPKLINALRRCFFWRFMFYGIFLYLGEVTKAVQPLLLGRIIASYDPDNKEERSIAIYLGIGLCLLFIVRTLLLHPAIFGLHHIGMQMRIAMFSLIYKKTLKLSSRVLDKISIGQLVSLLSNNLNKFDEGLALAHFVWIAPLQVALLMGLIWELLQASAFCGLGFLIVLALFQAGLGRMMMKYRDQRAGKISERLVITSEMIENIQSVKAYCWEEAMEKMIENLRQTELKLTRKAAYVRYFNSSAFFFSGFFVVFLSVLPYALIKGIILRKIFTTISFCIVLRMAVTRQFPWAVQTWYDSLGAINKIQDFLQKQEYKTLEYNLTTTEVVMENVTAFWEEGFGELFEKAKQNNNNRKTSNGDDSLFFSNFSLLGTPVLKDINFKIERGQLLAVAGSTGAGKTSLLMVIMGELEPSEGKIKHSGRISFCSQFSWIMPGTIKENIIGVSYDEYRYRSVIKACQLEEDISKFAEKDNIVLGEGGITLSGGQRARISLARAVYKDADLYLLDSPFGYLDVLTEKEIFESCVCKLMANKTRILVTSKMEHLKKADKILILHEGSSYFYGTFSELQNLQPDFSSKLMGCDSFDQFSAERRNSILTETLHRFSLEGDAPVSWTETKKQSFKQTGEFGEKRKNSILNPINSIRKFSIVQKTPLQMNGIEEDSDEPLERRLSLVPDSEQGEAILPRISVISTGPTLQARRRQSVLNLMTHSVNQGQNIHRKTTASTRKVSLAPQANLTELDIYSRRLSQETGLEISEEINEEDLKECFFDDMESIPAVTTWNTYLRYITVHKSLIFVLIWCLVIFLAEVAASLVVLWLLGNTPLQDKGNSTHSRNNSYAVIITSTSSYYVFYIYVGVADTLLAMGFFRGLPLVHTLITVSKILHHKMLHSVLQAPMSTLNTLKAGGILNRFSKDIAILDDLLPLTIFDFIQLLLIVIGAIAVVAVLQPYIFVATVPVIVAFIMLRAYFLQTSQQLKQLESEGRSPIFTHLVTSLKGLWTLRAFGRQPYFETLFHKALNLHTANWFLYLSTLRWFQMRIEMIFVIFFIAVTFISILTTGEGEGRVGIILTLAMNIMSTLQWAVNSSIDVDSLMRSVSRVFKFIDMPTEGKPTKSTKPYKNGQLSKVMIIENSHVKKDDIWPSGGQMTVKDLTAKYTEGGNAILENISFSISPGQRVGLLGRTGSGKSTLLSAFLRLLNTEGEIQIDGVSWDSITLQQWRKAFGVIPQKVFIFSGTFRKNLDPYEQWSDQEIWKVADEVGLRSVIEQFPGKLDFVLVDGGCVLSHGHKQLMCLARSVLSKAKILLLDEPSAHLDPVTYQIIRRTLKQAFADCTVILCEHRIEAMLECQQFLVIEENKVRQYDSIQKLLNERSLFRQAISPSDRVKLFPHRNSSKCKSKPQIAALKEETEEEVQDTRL

Row | SMILES | EC50 [µM] | Emax [1] [%] | Maximum % activity (%) [1] [%]
1 | COc1ccc2c(c1)O[C@@H](C(=O)N(CCO)Cc1ccccc1)C[C@H]2NC(=O)C1(c2ccc3c(c2)OC(F)(F)O3)CC1 (racemic) [Example 167, rac-(2R,4R)—N-benzyl-4-({[1-(2,2-difluoro-1,3-benzodioxol-5-yl)cyclopropyl]carbonyl}amino)-N-(2-hydroxyethyl)-7-methoxy-3,4-dihydro-2H-chromene-2-carboxamide] | 1.08 | 66 | –
2 | COc1ccc2c(c1)OC(C1CCCO1)CC2NC(=O)C1(c2ccc3c(c2)OC(F)(F)O3)CC1 (stereo not drawn) [Example 126, 1-(2,2-difluoro-1,3-benzodioxol-5-yl)-N-[7-methoxy-2-(tetrahydrofuran-2-yl)-3,4-dihydro-2H-chromen-4-yl]cyclopropanecarboxamide] | 1.38 | 79 | –
3 | COc1ccc2c(c1)O[C@@H](C(=O)N1CCOCC1)C[C@H]2NC(=O)C1(c2ccc3c(c2)OC(F)(F)O3)CC1 (racemic) [Example 177, rac-1-(2,2-difluoro-1,3-benzodioxol-5-yl)-N-[(2R,4R)-7-methoxy-2-(morpholin-4-ylcarbonyl)-3,4-dihydro-2H-chromen-4-yl]cyclopropanecarboxamide] | 2.91 | 56 | –
4 | O=C(O)COc1ccc2c(c1)O[C@@H](c1cccc(C(=O)O)c1)C[C@H]2NC(=O)C1(c2ccc3c(c2)OC(F)(F)O3)CC1 [Example 96, 3-[(2R,4R)-7-(carboxymethoxy)-4-({[1-(2,2-difluoro-1,3-benzodioxol-5-yl)cyclopropyl]carbonyl}amino)-3,4-dihydro-2H-chromen-2-yl]benzoic acid] | ≥ 20 | 15 | –
5 | Cc1ccc2c(c1)O[C@@H](c1cccc(C(=O)NCC(C)(C)O)c1)C[C@H]2NC(=O)C1(c2ccc3c(c2)OC(F)(F)O3)CC1 [Example 51, 3-[(2R,4R)-4-({[1-(2,2-difluoro-1,3-benzodioxol-5-yl)cyclopropyl]carbonyl}amino)-7-methyl-3,4-dihydro-2H-chromen-2-yl]-N-(2-hydroxy-2-methylpropyl)benzamide] | 0.97 | 83 | –
6 | O=C(O)c1ccc2c(c1)OCCC2NC(=O)C1(c2ccc3c(c2)OC(F)(F)O3)CC1 (stereo not drawn) [Example 42, 4-({[1-(2,2-difluoro-1,3-benzodioxol-5-yl)cyclopropyl]carbonyl}amino)-3,4-dihydro-2H-chromene-7-carboxylic acid] | ≥ 20 | 5 | –
7 | O=C(O)c1cnc(C2CC(NC(=O)C3(c4ccc5c(c4)OC(F)(F)O5)CC3)c3ccccc3O2)s1 (single isomer, unassigned) [Example 133] | 7.02 | – | 25
8 | CS(=O)(=O)N1CCC2(CC1)CC(NC(=O)C1(c3ccc4c(c3)OC(F)(F)O4)CC1)c1ccc(F)cc1O2 (stereo not drawn) [Example 101, 1-(2,2-difluoro-1,3-benzodioxol-5-yl)-N-[7-fluoro-1′-(methylsulfonyl)-3,4-dihydrospiro[chromene-2,4′-piperidin]-4-yl]cyclopropanecarboxamide] | 6.65 | 60 | –
9 | Cc1ccc2c(c1)[C@@H](NC(=O)C1(c3ccc4c(c3)OC(F)(F)O4)CC1)C[C@H](c1cccc(C(=O)O)c1)O2 [Example 13, 3-[(2R,4S)-4-({[1-(2,2-difluoro-1,3-benzodioxol-5-yl)cyclopropyl]carbonyl}amino)-6-methyl-3,4-dihydro-2H-chromen-2-yl]benzoic acid] | 4.57 | 118 | –
10 | COc1ccc2c(c1)O[C@@H](c1cccc(C(=O)O)c1)C[C@@H]2NC(=O)C1(c2ccc3c(c2)OC(F)(F)O3)CC1 [Example 2, 3-[(2R,4S)-4-({[1-(2,2-difluoro-1,3-benzodioxol-5-yl)cyclopropyl]carbonyl}amino)-7-methoxy-3,4-dihydro-2H-chromen-2-yl]benzoic acid] | 2.71 | 122 | –
11 | COc1ccc2c(c1)O[C@@H](C(=O)N(C)CC(O)c1ccccc1)C[C@@H]2NC(=O)C1(c2ccc3c(c2)OC(F)(F)O3)CC1 (mixture of isomers) [Example 185, rac-(2R,4S)-4-({[1-(2,2-difluoro-1,3-benzodioxol-5-yl)cyclopropyl]carbonyl}amino)-N-(2-hydroxy-2-phenylethyl)-7-methoxy-N-methyl-3,4-dihydro-2H-chromene-2-carboxamide] | 0.64 | 77 | –
12 | COc1ccc2c(c1)O[C@@H](C(=O)NC(CO)CO)C[C@H]2NC(=O)C1(c2ccc3c(c2)OC(F)(F)O3)CC1 (racemic) [Example 180, rac-(2R,4R)-4-({[1-(2,2-difluoro-1,3-benzodioxol-5-yl)cyclopropyl]carbonyl}amino)-N-(1,3-dihydroxypropan-2-yl)-7-methoxy-3,4-dihydro-2H-chromene-2-carboxamide] | 5.93 | 59 | –
13 | CC1(C)CC(NC(=O)C2(c3ccc4c(c3)OC(F)(F)O4)CC2)c2ccc(O)cc2O1 (stereo not drawn) [Example 124, 1-(2,2-difluoro-1,3-benzodioxol-5-yl)-N-(7-hydroxy-2,2-dimethyl-3,4-dihydro-2H-chromen-4-yl)cyclopropanecarboxamide] | 6.76 | 26 | –
14 | O=C(N[C@@H]1CC2(CCCC2)Oc2ccccc21)C1(c2ccc3c(c2)OC(F)(F)O3)CC1 [Example 78, 1-(2,2-difluoro-1,3-benzodioxol-5-yl)-N-[(4R)-3,4-dihydrospiro[chromene-2,1′-cyclopentan]-4-yl]cyclopropanecarboxamide] | 5.28 | 95 | –
15 | CCOC(=O)c1csc([C@H]2C[C@@H](NC(=O)C3(c4ccc5c(c4)OC(F)(F)O5)CC3)c3ccccc3O2)n1 (stereo in doubt) [Example 142, ethyl rel-2-[(2R,4R)-4-({[1-(2,2-difluoro-1,3-benzodioxol-5-yl)cyclopropyl]carbonyl}amino)-3,4-dihydro-2H-chromen-2-yl]-1,3-thiazole-4-carboxylate] | 1.18 | 87 | –
16 | COC(=O)c1cccc([C@H]2C[C@H](NC(=O)C3(c4ccc5c(c4)OC(F)(F)O5)CC3)c3ccccc3O2)c1 [Example 7, methyl 3-[(2R,4S)-4-({[1-(2,2-difluoro-1,3-benzodioxol-5-yl)cyclopropyl]carbonyl}amino)-3,4-dihydro-2H-chromen-2-yl]benzoate] | 5.84 | 58 | –
17 | COC(=O)c1cccc([C@H]2C[C@H](NC(=O)C3(c4ccc5c(c4)OC(F)(F)O5)CC3)c3cccnc3O2)c1 (racemic) [Example 34, rac-methyl 3-[(2R,4S)-4-({[1-(2,2-difluoro-1,3-benzodioxol-5-yl)cyclopropyl]carbonyl}amino)-3,4-dihydro-2H-pyrano[2,3-b]pyridin-2-yl]benzoate] | ≥ 20 | 15 | –
18 | COc1ccc2c(c1)O[C@@H](C(=O)N(CCO)Cc1ccccc1)C[C@@H]2NC(=O)C1(c2ccc3c(c2)OC(F)(F)O3)CC1 (racemic) [Example 184, rac-(2R,4S)—N-benzyl-4-({[1-(2,2-difluoro-1,3-benzodioxol-5-yl)cyclopropyl]carbonyl}amino)-N-(2-hydroxyethyl)-7-methoxy-3,4-dihydro-2H-chromene-2-carboxamide] | 0.58 | 73 | –
19 | COC(=O)c1cccc([C@H]2C[C@H](NC(=O)C3(c4ccc5c(c4)OC(F)(F)O5)CC3)c3ccc(F)nc3O2)c1 (racemic) [Example 118, methyl rac-3-[(2R,4S)-4-({[1-(2,2-difluoro-1,3-benzodioxol-5-yl)cyclopropyl]carbonyl}amino)-7-fluoro-3,4-dihydro-2H-pyrano[2,3-b]pyridin-2-yl]benzoate] | 8.15 | 25 | –
20 | C[C@@]1(CF)C[C@@H](NC(=O)C2(c3ccc4c(c3)OC(F)(F)O4)CC2)c2ccc(C(F)(F)F)cc2O1 [Example 80, 1-(2,2-difluoro-1,3-benzodioxol-5-yl)-N-[(2S,4R)-2-(fluoromethyl)-2-methyl-7-(trifluoromethyl)-3,4-dihydro-2H-chromen-4-yl]cyclopropanecarboxamide] | 1.55 | 114 | –
21 | COC(=O)c1cccc([C@H]2C[C@@H](NC(=O)C3(c4ccc5c(c4)OC(F)(F)O5)CC3)c3cccnc3O2)c1 (racemic) [Example 33, rac-methyl 3-[(2R,4R)-4-({[1-(2,2-difluoro-1,3-benzodioxol-5-yl)cyclopropyl]carbonyl}amino)-3,4-dihydro-2H-pyrano[2,3-b]pyridin-2-yl]benzoate] | 7.65 | 38 | –
22 | CCOC(=O)c1cnc([C@@H]2C[C@H](NC(=O)C3(c4ccc5c(c4)OC(F)(F)O5)CC3)c3ccccc3O2)s1 (stereo in doubt) [Example 132, ethyl rel-2-[(2S,4S)-4-({[1-(2,2-difluoro-1,3-benzodioxol-5-yl)cyclopropyl]carbonyl}amino)-3,4-dihydro-2H-chromen-2-yl]-1,3-thiazole-5-carboxylate] | 3.44 | 86 | –
23 | COc1ccc2c(c1)OC(C1CNC1)CC2NC(=O)C1(c2ccc3c(c2)OC(F)(F)O3)CC1 (stereo not drawn) [Example 116, N-[2-(azetidin-3-yl)-7-methoxy-3,4-dihydro-2H-chromen-4-yl]-1-(2,2-difluoro-1,3-benzodioxol-5-yl)cyclopropanecarboxamide] | 7.64 | 59 | –
24 | COC(=O)c1ccc([C@H]2C[C@@H](NC(=O)C3(c4cc5c(cc4Br)OC(F)(F)O5)CC3)c3ccc(OC)cc3O2)cc1 [Example 202F, methyl 4-((2R,4R)-4-(1-(6-bromo-2,2-difluorobenzo[d][1,3]dioxol-5-yl)cyclopropanecarboxamido)-7-methoxychroman-2-yl)benzoate] | 0.04 | 131 | –
